Measurements reported in patent US4916065A (priority 1988, dated 1990).
In brackets after ≈: the same amount, converted by molar mass. Like-named read-outs stand apart in the source and are kept apart here.

Legend:
[1] = test system: Cryptococcus neoformans D49; assay: Antifungal MIC, Sabouraud dextrose agar; format: cell-based
[2] = test system: Cryptococcus neoformans IAM4514; assay: Antifungal MIC, Sabouraud dextrose agar; format: cell-based
[3] = test system: Aspergillus flavus FA21436; assay: Antifungal MIC, Sabouraud dextrose agar; format: cell-based
[4] = test system: Fusarium moniliforme A2284; assay: Antifungal MIC, Sabouraud dextrose agar; format: cell-based; settings: Fusarium verticillioides
[5] = test system: Piricularia oryzae D91; assay: microbe, parasite or virus in culture; format: cell-based
[6] = test system: Trichophyton mentagrophytes #4329; assay: Antifungal MIC, Sabouraud dextrose agar; format: cell-based
[7] = test system: Petriellidium boydii IF08073; assay: Antifungal MIC, Sabouraud dextrose agar; format: cell-based; settings: Scedosporium boydii
[8] = test system: Mucor spinosus IF05317; assay: Antifungal MIC, Sabouraud dextrose agar; format: cell-based
[9] = test system: Staphylococcus aureus 209P; assay: Antibacterial MIC, serial agar dilution; format: cell-based; settings: aerobic, nutrient agar
[10] = test system: Staphylococcus aureus Smith; assay: Antibacterial MIC, serial agar dilution; format: cell-based; settings: aerobic, nutrient agar
[11] = test system: Staphylococcus aureus A20234; assay: Antibacterial MIC, serial agar dilution; format: cell-based; settings: aerobic, nutrient agar, kanamycin-resistant
[12] = test system: Staphylococcus aureus BX1633; assay: Antibacterial MIC, serial agar dilution; format: cell-based; settings: aerobic, nutrient agar, ampicillin-resistant
[13] = test system: Staphylococcus aureus A15097; assay: Antibacterial MIC, serial agar dilution; format: cell-based; settings: aerobic, nutrient agar, methicillin-resistant
[14] = test system: Staphylococcus epidermidis A22152; assay: Antibacterial MIC, serial agar dilution; format: cell-based; settings: aerobic, nutrient agar, kanamycin-resistant
[15] = test system: Enterococcus faecalis A9612; assay: Antibacterial MIC, serial agar dilution; format: cell-based; settings: aerobic, nutrient agar
[16] = test system: Micrococcus luteus 1001; assay: Antibacterial MIC, serial agar dilution; format: cell-based; settings: aerobic, nutrient agar
[17] = test system: Escherichia coli NIHJ; assay: Antibacterial MIC, serial agar dilution; format: cell-based; settings: aerobic, nutrient agar
[18] = test system: Escherichia coli Juhl; assay: Antibacterial MIC, serial agar dilution; format: cell-based; settings: aerobic, nutrient agar
[19] = test system: Escherichia coli A20665; assay: Antibacterial MIC, serial agar dilution; format: cell-based; settings: aerobic, nutrient agar, kanamycin-resistant
[20] = test system: Escherichia coli A9624; assay: Antibacterial MIC, serial agar dilution; format: cell-based; settings: aerobic, nutrient agar, kanamycin-resistant
[21] = test system: Escherichia coli A20341-1; assay: Antibacterial MIC, serial agar dilution; format: cell-based; settings: A203411, aerobic, nutrient agar, ampicillin-resistant
[22] = test system: Enterobacter cloacae A9659; assay: Antibacterial MIC, serial agar dilution; format: cell-based; settings: aerobic, nutrient agar
[23] = test system: Klebsiella pneumoniae D11; assay: Antibacterial MIC, serial agar dilution; format: cell-based; settings: aerobic, nutrient agar
[24] = test system: Klebsiella pneumoniae A20680; assay: Antibacterial MIC, serial agar dilution; format: cell-based; settings: aerobic, nutrient agar, kanamycin-resistant
[25] = test system: Pseudomonas aeruginosa A9930; assay: Antibacterial MIC, serial agar dilution; format: cell-based; settings: aerobic, nutrient agar
[26] = test system: Serratia marcescens A20222; assay: Antibacterial MIC, serial agar dilution; format: cell-based; settings: aerobic, nutrient agar
[27] = test system: Clostridium perfringens A9635; assay: microbe, parasite or virus in culture; format: cell-based
[28] = test system: Propionibacterium acnes A21933; assay: Antibacterial MIC, serial agar dilution; format: cell-based; settings: Cutibacterium acnes, anaerobic, GAM agar
[29] = test system: Peptostreptococcus anaerobius A21905; assay: Antibacterial MIC, serial agar dilution; format: cell-based
[30] = test system: Bacteroides fragilis A22534; assay: Antibacterial MIC, serial agar dilution; format: cell-based
[31] = test system: Canidia albicans IAM4888; assay: Antifungal MIC, Sabouraud dextrose agar; format: cell-based
[32] = test system: Canidia albicans A9540; assay: Antifungal MIC, Sabouraud dextrose agar; format: cell-based
[33] = test system: Aspergillus fumigatus IAM2034; assay: Antifungal MIC, Sabouraud dextrose agar; format: cell-based
[34] = test system: Trichophyton mentagrophytes D155; assay: Antifungal MIC, Sabouraud dextrose agar; format: cell-based
[35] = test system: aerobic and anaerobic bacteria; format: cell-based
[36] = test system: fungi; assay: In vitro antifungal activity, overall spectrum; format: cell-based; settings: all organisms tested except Cryptococcus neoformans
[37] = test system: B16-F10; assay: In vitro cytotoxicity; format: cell-based, murine; settings: Mus musculus, 72 hours, neutral red, 540 nm
[38] = test system: Moser; assay: In vitro cytotoxicity; format: cell-based; settings: Homo sapiens; 72 hours, neutral red, 540 nm
[39] = test system: P388 leukemia; assay: Antitumor activity against P388 leukemia (ip); format: in vivo, mice; settings: for Body weight change on day 4 / MST (median survival time) / T/C: QD × 3, ip
[40] = Solubility; format: physicochemical; settings: organic solvents such as chloroform, methanol and ethanol
[41] = test system: Clostridium difficile A21675; assay: Antibacterial MIC, serial agar dilution; format: cell-based; settings: Clostridioides difficile, anaerobic, GAM agar, clindamycin-resistant
[42] = test system: Bacteroides fragilis A22693; assay: Antibacterial MIC, serial agar dilution; format: cell-based; settings: anaerobic, GAM agar
[43] = test system: Staphylococcus epidermidis D153; assay: Antibacterial MIC, serial agar dilution; format: cell-based; settings: aerobic, nutrient agar
[44] = test system: Bacillus subtilis PCI-219; assay: Antibacterial MIC, serial agar dilution; format: cell-based; settings: PCI219, aerobic, nutrient agar
[45] = test system: Proteus vulgaris A9436; assay: Antibacterial MIC, serial agar dilution; format: cell-based; settings: aerobic, nutrient agar
[46] = test system: Proteus mirabilis A9554; assay: Antibacterial MIC, serial agar dilution; format: cell-based; settings: aerobic, nutrient agar
[47] = test system: Morganella morganii A9553; assay: Antibacterial MIC, serial agar dilution; format: cell-based; settings: aerobic, nutrient agar
[48] = test system: HCT-116; assay: In vitro cytotoxicity; format: cell-based; settings: Homo sapiens, 72 hours, neutral red, 540 nm
[49] = test system: DNA synthesis in L1210 cells; assay: Inhibition of macromolecule synthesis in L1210 leukemia; format: cell-based; settings: Mus musculus; 3H-thymidine, L1210, 15 min + 60 min, 37° C.
[50] = test system: RNA synthesis in L1210 cells; assay: as above; format: cell-based; settings: Mus musculus; 14C-uridine, L1210, 15 min + 60 min, 37° C.
[51] = test system: Protein synthesis in L1210 cells; assay: as above; format: cell-based; settings: Mus musculus; 3H-leucine, L1210, 15 min + 60 min, 37° C.

SMILES: C[C@@H]1[C@H](O)[C@@H](C)/C=C/C=C/C=C/C=C/C=C/C=C/C=C/[C@H](O[C@@H]2O[C@H](C)[C@@H](O)[C@H](N)[C@@H]2O)C[C@@H]2O[C@](O)(C[C@@H](O)C[C@@H](O)[C@H](O)CC[C@@H](O)C[C@@H](O)CC(=O)O[C@H]1C)C[C@H](O)[C@H]2C(=O)O [Amphotericin B, reference compound]
- MIC [1]: < 200 ng/mL
- MIC [2]: < 200 ng/mL
- MIC [3]: 3100 ng/mL (≈ 3.35 µM)
- MIC [4]: 12500 ng/mL (≈ 13.5 µM)
- MIC [5]: 3100 ng/mL (≈ 3.35 µM)
- MIC [6]: 3100 ng/mL (≈ 3.35 µM)
- MIC [7]: > 100000 ng/mL
- MIC [8]: 800 ng/mL (≈ 0.866 µM)

SMILES: COC1=C(C(=O)O)C(C)C23OC24c2cc(OC(C)=O)c5c(c2NC3C#C/C=C\C#CC14)C(=O)c1c(OC(C)=O)ccc(OC(C)=O)c1C5=O (stereo not drawn) [BU-3420T acetate]
- MIC [9]: 0.0063 ng/mL
- MIC [10]: 0.0063 ng/mL
- MIC [11]: 0.0063 ng/mL
- MIC [12]: 0.0063 ng/mL
- MIC [13]: 0.0063 ng/mL
- MIC [14]: 0.013 ng/mL
- MIC [15]: 0.1 ng/mL
- MIC [16]: 0.2 ng/mL
- MIC [17]: 6.3 ng/mL
- MIC [18]: 6.3 ng/mL
- MIC [19]: 13 ng/mL
- MIC [20]: 6.3 ng/mL
- MIC [21]: 25 ng/mL
- MIC [22]: 6.3 ng/mL
- MIC [23]: 0.8 ng/mL
- MIC [24]: 13 ng/mL
- MIC [25]: 6.3 ng/mL
- MIC [26]: 6.3 ng/mL
- MIC [27]: 13 ng/mL
- MIC [28]: 13 ng/mL
- MIC [29]: 25 ng/mL
- MIC [30]: 50 ng/mL
- MIC [31]: 400 ng/mL
- MIC [32]: 200 ng/mL
- MIC [1]: 800 ng/mL
- MIC [2]: 800 ng/mL
- MIC [33]: < 50 ng/mL
- MIC [3]: 400 ng/mL
- MIC [4]: < 50 ng/mL
- MIC [34]: 400 ng/mL
- MIC [6]: 800 ng/mL
- MIC [8]: 200 ng/mL
- activity against Gram-negative organisms ([35]; Gram-negative organisms, versus Gram-positive): a little less susceptible
- activity against Gram-positive aerobic bacteria ([35]; Gram-positive aerobic bacteria): intensely potent activity
- activity against anaerobic Gram-positive and negative bacteria versus clindamycin ([35]; anaerobic bacteria): much more active than clindamycin
- activity against certain kanamycin- and clindamycin-resistant bacteria ([35]; kanamycin- and clindamycin-resistant bacteria): susceptible to both compounds
- antifungal activity versus amphotericin B [36]: significantly more potent than amphotericin B
- IC50 [37]: 0.7 ng/mL
- IC50 [38]: 0.003 ng/mL
- Body weight change on day 4 ([39]; 0.5 mg/kg/day): -0.5 g
- MST (median survival time) ([39]; 0.5 mg/kg/day): 13.5 days
- T/C ([39]; 0.5 mg/kg/day): 135%
- Body weight change on day 4 ([39]; 1.0 mg/kg/day): -0.8 g
- MST (median survival time) ([39]; 1.0 mg/kg/day): 11.0 days
- T/C ([39]; 1.0 mg/kg/day): 110%
- maximum T/C value ([39]; P388, ip, QD × 3): 135%
- solubility in organic solvents compared with BU-3420T [40]: much improved solubility

SMILES: CCC[C@@H]1C[C@@H](C(=O)N[C@@H]([C@H]2O[C@H](SC)[C@H](O)[C@@H](O)[C@H]2O)[C@H](C)Cl)N(C)C1 [Clindamycin, reference compound]
- MIC [41]: > 100000 ng/mL
- MIC [27]: 25 ng/mL (≈ 0.0588 µM)
- MIC [28]: 400 ng/mL (≈ 0.941 µM)
- MIC ([29]; anaerobic, GAM agar, read-out: MIC): 400 ng/mL (≈ 0.941 µM)
- MIC [42]: 50 ng/mL (≈ 0.118 µM)
- MIC ([30]; anaerobic, GAM agar, ampicillin-resistant, read-out: MIC): 800 ng/mL (≈ 1.88 µM)

SMILES: NC[C@H]1O[C@H](O[C@H]2[C@H](O)[C@@H](O[C@H]3O[C@H](CO)[C@@H](O)[C@H](N)[C@H]3O)[C@H](N)C[C@@H]2N)[C@H](O)[C@@H](O)[C@@H]1O [Kanamycin A, reference compound]
- MIC [9]: 200 ng/mL (≈ 0.413 µM)
- MIC [10]: 800 ng/mL (≈ 1.65 µM)
- MIC [11]: 100000 ng/mL (≈ 206 µM)
- MIC [12]: 800 ng/mL (≈ 1.65 µM)
- MIC [13]: 800 ng/mL (≈ 1.65 µM)
- MIC [43]: 400 ng/mL (≈ 0.826 µM)
- MIC [14]: 12500 ng/mL (≈ 25.8 µM)
- MIC [15]: 25000 ng/mL (≈ 51.6 µM)
- MIC [16]: 3100 ng/mL (≈ 6.4 µM)
- MIC [44]: 200 ng/mL (≈ 0.413 µM)
- MIC [17]: 1600 ng/mL (≈ 3.3 µM)
- MIC [18]: 6300 ng/mL (≈ 13 µM)
- MIC [19]: > 100000 ng/mL
- MIC [20]: > 100000 ng/mL
- MIC [21]: 6300 ng/mL (≈ 13 µM)
- MIC [22]: 3100 ng/mL (≈ 6.4 µM)
- MIC [23]: 400 ng/mL (≈ 0.826 µM)
- MIC [24]: > 100000 ng/mL
- MIC [25]: 25000 ng/mL (≈ 51.6 µM)
- MIC [45]: 400 ng/mL (≈ 0.826 µM)
- MIC [46]: 3100 ng/mL (≈ 6.4 µM)
- MIC [47]: 3100 ng/mL (≈ 6.4 µM)
- MIC [26]: 6300 ng/mL (≈ 13 µM)

SMILES: CO[C@@]12[C@H](COC(N)=O)C3=C(C(=O)C(C)=C(N)C3=O)N1C[C@@H]1N[C@@H]12 [Mitomycin C, reference compound]
- IC50 [37]: 500 ng/mL (≈ 1.5 µM)
- IC50 [38]: 1200 ng/mL (≈ 3.59 µM)
- IC50 [48]: 800 ng/mL (≈ 2.39 µM)
- IC50 [49]: 1700 ng/mL
- IC50 [50]: > 100000 ng/mL
- IC50 [51]: > 100000 ng/mL
